# Source: patent US8278032B2, “Transporter protein in mammal and utilization of the same” (priority 2005, dated 2012)
# Molecular target: T1, hMATE1 (Homo sapiens, UniProt Q96FL8)
# T1 sequence (Q96FL8 1-570): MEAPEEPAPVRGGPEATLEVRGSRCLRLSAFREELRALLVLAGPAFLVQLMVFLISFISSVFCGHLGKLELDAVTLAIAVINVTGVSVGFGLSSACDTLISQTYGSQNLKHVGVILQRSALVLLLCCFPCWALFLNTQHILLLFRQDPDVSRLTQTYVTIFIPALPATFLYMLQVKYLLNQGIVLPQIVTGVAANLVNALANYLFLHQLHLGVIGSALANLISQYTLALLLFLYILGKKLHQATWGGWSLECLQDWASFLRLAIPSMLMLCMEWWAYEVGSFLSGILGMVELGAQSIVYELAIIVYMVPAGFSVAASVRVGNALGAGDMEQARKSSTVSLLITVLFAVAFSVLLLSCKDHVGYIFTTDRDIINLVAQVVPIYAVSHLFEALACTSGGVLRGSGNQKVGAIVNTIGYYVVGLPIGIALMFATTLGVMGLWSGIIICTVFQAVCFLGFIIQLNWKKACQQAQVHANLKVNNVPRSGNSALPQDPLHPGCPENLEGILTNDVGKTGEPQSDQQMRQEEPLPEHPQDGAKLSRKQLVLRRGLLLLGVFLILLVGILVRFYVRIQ
# Assay: Inhibition of RI-labeled TEA uptake in HEK293 cells expressing hMATE1
# Conditions: for TEA uptake activity percent taking the level with addition of no compound as 100% (% ± S.D.): 50 μM RI-labeled TEA, pH 8.0, HEK293 cells expressing hMATE1; for Inhibition of TEA uptake activity (in words, summary of Table 1): MATE1 expressing HEK293 cells, 50 μM TEA, pH 8.0; for Effect on TEA uptake activity (in words): valinomycin 5 μM with 65 mM potassium chloride, nigericin 5 μM with potassium chloride, SF6847 10 μM
# [1] = HEK293 cells expressing human MATE1, FIG. 9(e)
compound,measurement,setting,value
Tocopherol,TEA uptake activity percent taking the level with addition of no compound as 100% (% ± S.D.),compound 0.1 mM,78.8 ± 9.6%
para-aminobutyric acid,"Inhibition of TEA uptake activity (in words, summary of Table 1)",,not inhibited
C[C@@H]1O[C@@H](O[C@H]2C[C@@H](O)[C@]3(CO)[C@H]4[C@H](O)C[C@]5(C)[C@@H](C6=CC(=O)OC6)CC[C@]5(O)[C@@H]4CC[C@]3(O)C2)[C@H](O)[C@H](O)[C@H]1O [Ouabain],TEA uptake activity percent taking the level with addition of no compound as 100% (% ± S.D.),compound 0.01 mM,115.9 ± 6.6%
CC(C)(c1ccc(O)cc1)c1ccc(O)cc1 [Bisphenol A],TEA uptake activity percent taking the level with addition of no compound as 100% (% ± S.D.),compound 0.01 mM,113.9 ± 2.1%
CO[C@@H]1C[C@@H](C[C@H]2CC[C@H](C)[C@H]([C@@H](C)C(=O)O)O2)O[C@]2(O[C@](C)([C@H]3CC[C@@](C)([C@@H]4O[C@@H]([C@H]5O[C@@](O)(CO)[C@H](C)C[C@@H]5C)C[C@@H]4C)O3)C[C@H]2C)[C@@H]1C [nigericin],Effect on TEA uptake activity (in words),[1],greatly decreased
CC(C)NCC(O)COc1cccc2ccccc12 (stereo not drawn) [Propranolol],TEA uptake activity percent taking the level with addition of no compound as 100% (% ± S.D.),compound 0.1 mM,30.1 ± 3.9%
CC(C)[C@@H]1NC(=O)[C@H](C)OC(=O)[C@@H](C(C)C)NC(=O)[C@@H](C(C)C)OC(=O)[C@H](C(C)C)NC(=O)[C@H](C)OC(=O)[C@@H](C(C)C)NC(=O)[C@@H](C(C)C)OC(=O)[C@H](C(C)C)NC(=O)[C@H](C)OC(=O)[C@@H](C(C)C)NC(=O)[C@@H](C(C)C)OC1=O [valinomycin],Effect on TEA uptake activity (in words),[1],not affected
N.N.[Cl][Pt][Cl] [Cisplatin],TEA uptake activity percent taking the level with addition of no compound as 100% (% ± S.D.),compound 1 mM,35.6 ± 6.0%
C[C@]12CC[C@@H](O)C[C@@H]1CC[C@@H]1[C@@H]2CC[C@]2(C)C(=O)CC[C@@H]12 [androsterone],"Inhibition of TEA uptake activity (in words, summary of Table 1)",,inhibited
COc1ccc(Cc2nccc3cc(OC)c(OC)cc23)cc1OC [Papaverine],TEA uptake activity percent taking the level with addition of no compound as 100% (% ± S.D.),compound 0.01 mM,26.8 ± 2.7%
CN(C)CCCN1c2ccccc2Sc2ccc(Cl)cc21 [Chlorpromazine],TEA uptake activity percent taking the level with addition of no compound as 100% (% ± S.D.),compound 0.1 mM,12.2 ± 3.6%
NCCCCNCCCN [Spermidine],TEA uptake activity percent taking the level with addition of no compound as 100% (% ± S.D.),compound 0.05 mM,97.0 ± 11.4%
COC(=O)[C@H]1[C@H]2C[C@@H]3c4[nH]c5cc(OC)ccc5c4CCN3C[C@H]2C[C@@H](OC(=O)c2cc(OC)c(OC)c(OC)c2)[C@@H]1OC [Reserpine],TEA uptake activity percent taking the level with addition of no compound as 100% (% ± S.D.),compound 0.001 mM,86.3 ± 3.5%
same,TEA uptake activity percent taking the level with addition of no compound as 100% (% ± S.D.),compound 0.01 mM,22.8 ± 0.9%
CN(C)C(=N)N=C(N)N [Metformin],TEA uptake activity percent taking the level with addition of no compound as 100% (% ± S.D.),compound 0.1 mM,120.5 ± 9.4%
NC12CC3CC(CC(C3)C1)C2 [Amantadine],TEA uptake activity percent taking the level with addition of no compound as 100% (% ± S.D.),compound 0.1 mM,75.5 ± 9.8%
Cc1ncc(C[n+]2csc(CCO)c2C)c(N)n1 [Thiamine],TEA uptake activity percent taking the level with addition of no compound as 100% (% ± S.D.),compound 0.1 mM,55.7 ± 7.0%
same,TEA uptake activity percent taking the level with addition of no compound as 100% (% ± S.D.),compound 1 mM,31.1 ± 3.9%
Cl.N [ammonium chloride],TEA uptake activity inhibited by,"HEK293 cells expressing human MATE1, FIG. 9(e), concentration not given",60%
NCCc1c[nH]c2ccc(O)cc12 [Serotonin],TEA uptake activity percent taking the level with addition of no compound as 100% (% ± S.D.),compound 0.1 mM,67.5 ± 8.0%
O=C(CCCN1CC=C(n2c(=O)[nH]c3ccccc32)CC1)c1ccc(F)cc1 [Droperidol],TEA uptake activity percent taking the level with addition of no compound as 100% (% ± S.D.),compound 0.001 mM,74.1 ± 14.7%
